Test results as given in the supplement of paper PMC10307832.

Tests used:
Assay in all cases: relative viability (nuclei count vs DMSO), 5 days (fraction); higher = more cells survive
VX-11e + Trametinib = compound: CC1=CN=C(N=C1C2=CNC(=C2)C(=O)N[C@H](CO)C3=CC(=CC=C3)Cl)NC4=C(C=C(C=C4)F)Cl [VX-11e] + CC(=O)Nc1cccc(-n2c(=O)n(C3CC3)c(=O)c3c(Nc4ccc(I)cc4F)n(C)c(=O)c(C)c32)c1 [Trametinib] (partner 0.02 µM)
In short: (§1)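 Each reported value is a median over duplicate plates. It expresses relative viability: treated-well nuclei count divided by vehicle-well nuclei count. Lung cancer cell lines in 1536-well plates were dosed by pin tool a day after seeding, alone with one drug or with a fixed anchor-drug dose plus five library-drug doses (not always all listed) in √10 steps, and nuclei were counted after 5 days.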

VX-11e + Olaparib = compound: CC1=CN=C(N=C1C2=CNC(=C2)C(=O)N[C@H](CO)C3=CC(=CC=C3)Cl)NC4=C(C=C(C=C4)F)Cl [VX-11e] + O=C(c1cc(Cc2n[nH]c(=O)c3ccccc23)ccc1F)N1CCN(C(=O)C2CC2)CC1 [Olaparib] (partner 8 µM)
In short: as §1

VX-11e + Phenformin = compound: CC1=CN=C(N=C1C2=CNC(=C2)C(=O)N[C@H](CO)C3=CC(=CC=C3)Cl)NC4=C(C=C(C=C4)F)Cl [VX-11e] + N=C(N)NC(=N)NCCc1ccccc1 [Phenformin] (partner 250 µM)
In short: as §1

VX-11e = compound: CC1=CN=C(N=C1C2=CNC(=C2)C(=O)N[C@H](CO)C3=CC(=CC=C3)Cl)NC4=C(C=C(C=C4)F)Cl [VX-11e]
In short: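 Acceptance criteria were a control CV below 25% and at least one doubling per plate. Lung cancer cell lines in 1536-well plates got five library-drug doses (not always all listed) √10 apart by pinning and were left 5 days with no medium change. Viability divides treated-well nuclei by vehicle-well nuclei and is the median across plates. Nuclei were counted by MetaXpress from 4× Hoechst images.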

Row | Cell Line | relative viability (VX-11e + Trametinib; first compound 0.04 µM) | relative viability (VX-11e + Trametinib; first compound 0.1265 µM) | relative viability (VX-11e + Trametinib; first compound 0.4 µM) | relative viability (VX-11e + Trametinib; first compound 1.265 µM) | relative viability (VX-11e + Trametinib; first compound 4 µM) | relative viability (VX-11e + Olaparib; first compound 0.04 µM) | relative viability (VX-11e + Olaparib; first compound 0.1265 µM) | relative viability (VX-11e + Olaparib; first compound 0.4 µM) | relative viability (VX-11e + Olaparib; first compound 1.265 µM) | relative viability (VX-11e + Olaparib; first compound 4 µM) | relative viability (VX-11e + Phenformin; first compound 0.04 µM) | relative viability (VX-11e + Phenformin; first compound 0.1265 µM) | relative viability (VX-11e + Phenformin; first compound 0.4 µM) | relative viability (VX-11e + Phenformin; first compound 1.265 µM) | relative viability (VX-11e + Phenformin; first compound 4 µM) | relative viability (VX-11e; 0.04 µM) | relative viability (VX-11e; 0.1265 µM) | relative viability (VX-11e; 0.4 µM) | relative viability (VX-11e; 1.265 µM) | relative viability (VX-11e; 4 µM)
1 | EKVX | 0.385 | 0.353 | 0.293 | 0.395 | 0.207 | 0.836 | 0.834 | 0.713 | 0.94 | 0.451 | 0.211 | 0.237 | 0.13 | 0.216 | 0.197 | 0.906 | 1.03 | 0.953 | 0.898 | 0.489
2 | HCC-78 | 0.827 | 0.651 | 0.632 | 0.559 | 0.387 | 0.852 | 0.639 | 0.834 | 0.963 | 0.754 |  | 0.75 | 0.857 | 0.672 | 0.738 | 0.934 | 1.02 | 1.01 | 0.68 | 0.667
3 | NCI-H647 | 0.51 | 0.358 | 0.211 | 0.163 | 0.217 | 0.627 | 0.591 | 0.617 | 0.422 | 0.303 | 0.677 | 0.442 | 0.249 | 0.266 | 0.196 | 0.814 | 0.884 | 0.494 | 0.652 | 0.426
4 | NCI-H2126 | 0.543 | 0.539 | 0.575 | 0.523 | 0.473 | 0.885 | 0.874 | 0.864 | 0.879 | 0.751 | 0.48 | 0.512 |  | 0.567 | 0.467 | 0.682 | 0.935 | 0.701 | 0.894 | 0.808
5 | NCI-H520 | 0.647 | 0.668 | 0.528 | 0.481 | 0.22 | 0.383 | 0.327 | 0.326 | 0.298 | 0.271 | 0.505 | 0.483 | 0.449 | 0.752 | 0.479 | 0.872 | 1.06 | 0.874 | 1.25 | 0.898
6 | EMC-BAC-2 | 0.937 | 0.791 | 0.518 | 0.538 | 0.402 | 0.529 | 0.492 | 0.468 | 0.711 | 0.636 | 0.518 | 0.481 | 0.633 | 0.545 | 0.51 | 0.903 | 0.875 | 1.43 | 0.998 | 0.663
7 | NCI-H1755 | 0.751 | 0.755 | 0.78 | 0.778 | 0.612 | 0.903 | 0.853 | 0.874 | 0.942 | 0.747 | 0.694 | 0.542 | 0.248 | 0.594 | 0.51 | 1.03 | 0.978 | 0.978 | 0.992 | 0.817
8 | SW 900 | 0.826 | 0.761 |  | 0.483 | 0.605 | 0.879 | 0.888 |  | 0.836 | 0.581 | 0.504 | 0.456 | 0.216 | 0.213 | 0.318 | 0.722 | 0.768 | 0.182 | 0.473 | 0.541
